{"source": "paper PMC12904578", "about": "(PLOS Pathogens, 2026)", "key": {"[1]": {"target": "H5FR H5 HA ectodomain from A/duck/France/161108h/2016 (H5N8), polyhistidine-tagged (SPR form) (influenza A virus A/duck/France/161108h/2016 (H5N8))", "test": "SPR"}, "[2]": {"tested_on": "Sh2 H7 HA from A/Shanghai/2/2013 (H7N9)", "conditions": "cited from earlier work"}, "[3]": {"tested_on": "VN1194 H5 HA from A/Vietnam/1194/2004 (H5N1)", "conditions": "cited from earlier work"}, "H5FR H5 HA": {"tested_on": "H5FR H5 HA", "assay_type": "binding, A/duck/France/161108h/2016 (H5N8)"}}, "note": "“Also recorded” adds a separate entry of the source.", "data": [{"compound": "O-linked glycopeptide compound 2 (core 1 on peptide FVTIG, no sialic acid)", "values": [{"measurement": "Kd", "setting": "[1]", "value": "> 650", "unit": "µM"}]}, {"compound": "NeuAcα2–3Galβ1–4GlcNAcβ1–3GalNAcα-Thr [glycan #21]", "values": [{"measurement": "binding mode of glycan in Sh2 H7 HA", "setting": "[2]", "value": "adopts a cis configuration in the Siaα2–3Gal linkage"}]}, {"compound": "CC(=O)NC1C(O)OC(CO)C(OC2OC(CO)C(O)C(OC3(C(=O)O)CC(O)C(NC(C)=O)C(C(O)C(O)CO)O3)C2O)C1O", "note": "(centres unmarked) [3´-SLN, NeuAcα2–3Galβ1–4GlcNAc]", "values": [{"measurement": "Siaα2–3Gal linkage configuration of 3´-SLN in VN1194 H5 HA", "setting": "[3]", "value": "trans configuration"}]}, {"compound": "NeuAcα2–3Galβ1–3GlcNAcβ1–3Galβ1–4Glc [LSTa]", "values": [{"measurement": "binding interactions in H5FR HA receptor binding site", "setting": "H5FR H5 HA", "value": "Sia-1, Gal-2 and GlcNAc-3 were ordered; also recorded: similarly to VN1194 HA or H5VN HA"}, {"measurement": "LSTa residues visible in VN1194 H5 HA complex", "setting": "[3]", "value": "only Sia-1 and Gal-2 were visible"}]}]}
